Measurements from US9862717B2 (Merck Patent GmbH, priority 2014, dated 2018).

The molecules below were run against T1, CDK8/CycC (Homo sapiens, UniProt P49336) (assay: FRET based Lanthascreen binding competition assay for CDK8 inhibitory activity). Settings: CDK8 co-expressed with CycC; class symbols; read-out: IC50.
T1 construct: purchased Invitrogen PV4402
Method in brief: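 Competition binding of a dye-labeled ATP-competitive Alexa647 probe to CDK8 co-expressed with CycC, Eu-labeled via biotinylated anti-His antibody/streptavidin.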

T1 sequence (P49336 whole entry): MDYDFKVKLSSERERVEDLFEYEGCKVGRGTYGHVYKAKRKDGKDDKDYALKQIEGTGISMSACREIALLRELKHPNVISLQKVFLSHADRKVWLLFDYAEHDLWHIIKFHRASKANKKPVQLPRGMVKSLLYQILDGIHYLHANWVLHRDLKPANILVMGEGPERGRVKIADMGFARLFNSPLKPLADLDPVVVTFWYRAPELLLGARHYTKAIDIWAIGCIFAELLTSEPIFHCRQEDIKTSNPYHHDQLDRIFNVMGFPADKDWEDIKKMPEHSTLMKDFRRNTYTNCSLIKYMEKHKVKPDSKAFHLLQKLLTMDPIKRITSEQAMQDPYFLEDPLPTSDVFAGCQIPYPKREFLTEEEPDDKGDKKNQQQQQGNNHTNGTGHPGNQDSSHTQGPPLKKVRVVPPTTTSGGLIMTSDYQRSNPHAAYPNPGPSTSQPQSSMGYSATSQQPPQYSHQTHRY
T1 sequence (P24863 whole entry partner): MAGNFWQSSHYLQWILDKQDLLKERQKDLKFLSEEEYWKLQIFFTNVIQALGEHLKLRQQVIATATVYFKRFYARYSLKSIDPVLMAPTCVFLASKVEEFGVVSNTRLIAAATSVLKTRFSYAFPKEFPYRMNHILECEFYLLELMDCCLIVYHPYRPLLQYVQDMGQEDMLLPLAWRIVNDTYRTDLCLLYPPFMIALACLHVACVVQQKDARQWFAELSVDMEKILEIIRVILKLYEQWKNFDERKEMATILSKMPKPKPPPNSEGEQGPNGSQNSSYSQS

SMILES	IC50 [µM]
Cc1n[nH]c2ncc(C(=O)N3CCC[C@@H]3c3ccc4[nH]ncc4c3)cc12 [compound 246, [(R)-2-(1H-Indazol-5-yl)-pyrrolidin-1-yl]-(3-methyl-1H-pyrazolo[3,4-b]pyridin-5-yl)-methanone]	1 to 10
Cc1n[nH]c2ncc(C(=O)N3CCC[C@@H]3c3ccc(C#N)cc3)cc12 [compound 248, 4-[(R)-1-(3-Methyl-1H-pyrazolo[3,4-b]pyridine-5-carbonyl)-pyrrolidin-2-yl]-benzonitrile]	1 to 10
Cc1n[nH]c2ncc(C(=O)N3CCC[C@@H]3c3ccc(Cl)c(C#N)c3)cc12 [compound 253, 2-Chloro-5-[(R)-1-(3-methyl-1H-pyrazolo[3,4-b]pyridine-5-carbonyl)-pyrrolidin-2-yl]-benzonitrile]	1 to 10
Cc1n[nH]c2ncc(C(=O)N3C[C@@H](O)[C@H](c4ccc(Cl)cc4)C3)cc12 [compound 255, [(3R,4S)-3-(4-Chloro-phenyl)-4-hydroxy-pyrrolidin-1-yl]-(3-methyl-1H-pyrazolo[3,4-b]pyridin-5-yl)-methanone]	1 to 10
Cc1n[nH]c2ncc(C(=O)N3CCC[C@@H]3c3cccc(C#N)c3)cc12 [compound 258, 3-[(R)-1-(3-Methyl-1H-pyrazolo[3,4-b]pyridine-5-carbonyl)-pyrrolidin-2-yl]-benzonitrile]	1 to 10
Cc1n[nH]c2ncc(C(=O)N3C[C@H](O)C[C@H]3c3ccc(Cl)cc3)cc12 [compound 261, [(2S,4R)-2-(4-Chloro-phenyl)-4-hydroxy-pyrrolidin-1-yl]-(3-methyl-1H-pyrazolo[3,4-b]pyridin-5-yl)-methanone]	0.1 to 1
Cc1n[nH]c2ncc(C(=O)N3CCC[C@H]3c3ccc(CN)cc3)cc12 [compound 262, [(S)-2-(4-Aminomethyl-phenyl)-pyrrolidin-1-yl]-(3-methyl-1H-pyrazolo[3,4-b]pyridin-5-yl)-methanone]	0.1 to 1

Further lines, results first:

IC50 [µM]	SMILES
0.01 to 0.1	Cc1n[nH]c2ncc(C(=O)N3CCC[C@H]3c3ccc(C#N)cc3)cc12 [compound 247, 4-[(S)-1-(3-Methyl-1H-pyrazolo[3,4-b]pyridine-5-carbonyl)-pyrrolidin-2-yl]-benzonitrile]
0.01 to 0.1	Cc1n[nH]c2ncc(C(=O)N3CCC(CCO)(c4ccc(Cl)cc4)C3)cc12 (stereo not drawn) [compound 249, [3-(4-Chloro-phenyl)-3-(2-hydroxy-ethyl)-pyrrolidin-1-yl]-(3-methyl-1H-pyrazolo[3,4-b]pyridin-5-yl)-methanone]
0.1 to 1	Nc1n[nH]c2ccc(C(=O)N3CCC(CCO)(c4ccc(Cl)cc4)C3)cc12 (stereo not drawn) [compound 250, (3-Amino-1H-indazol-5-yl)-[3-(4-chloro-phenyl)-3-(2-hydroxy-ethyl)-pyrrolidin-1-yl]-methanone]
0.1 to 1	Cc1n[nH]c2ncc(C(=O)N3C[C@H](N)C[C@H]3c3ccc(Cl)cc3)cc12 [compound 251, [(2S,4R)-4-Amino-2-(4-chloro-phenyl)-pyrrolidin-1-yl]-(3-methyl-1H-pyrazolo[3,4-b]pyridin-5-yl)-methanone]
0.1 to 1	Cc1n[nH]c2ncc(C(=O)N3CCC[C@H]3c3ccc(Cl)c(C#N)c3)cc12 [compound 252, 2-Chloro-5-[(S)-1-(3-methyl-1H-pyrazolo[3,4-b]pyridine-5-carbonyl)-pyrrolidin-2-yl]-benzonitrile]
0.1 to 1	CN[C@@H]1C[C@@H](c2ccc(Cl)cc2)N(C(=O)c2cnc3[nH]nc(C)c3c2)C1 [compound 254, [(2S,4R)-2-(4-Chloro-phenyl)-4-methylamino-pyrrolidin-1-yl]-(3-methyl-1H-pyrazolo[3,4-b]pyridin-5-yl)-methanone]
< 0.01	Cc1n[nH]c2ncc(C(=O)N3C[C@H](c4ccc(Cl)cc4)[C@@H](O)C3)cc12 [compound 256, [(3S,4R)-3-(4-Chloro-phenyl)-4-hydroxy-pyrrolidin-1-yl]-(3-methyl-1H-pyrazolo[3,4-b]pyridin-5-yl)-methanone]
< 0.01	Cc1n[nH]c2ccc(C(=O)N3CCC[C@H]3c3ccc(C(F)(F)F)cc3)nc12 [compound 257, (S)-(3-Methyl-1H-pyrazolo[4,3-b]pyridin-5-yl)(2-(4-(trifluoromethyl)phenyl)pyrrolidin-1-yl)methanone]
0.1 to 1	Cc1n[nH]c2ncc(C(=O)N3CCC[C@H]3c3cccc(C#N)c3)cc12 [compound 259, 3-[(S)-1-(3-Methyl-1H-pyrazolo[3,4-b]pyridine-5-carbonyl)-pyrrolidin-2-yl]-benzonitrile]
< 0.01	Cc1n[nH]c2ccc(C(=O)N3CCCC3c3ccc(Cl)c(F)c3)nc12 (stereo not drawn) [compound 260, (2-(4-chloro-3-fluorophenyl)pyrrolidin-1-yl)(3-methyl-1H-pyrazolo[4,3-b]pyridin-5-yl)methanone]

Same assay, conditions: CDK8 co-expressed with CycC; numeric value; read-out: IC50

IC50 [µM]	SMILES
0.34	Nc1n[nH]c2cnc(C(=O)N3CCC[C@H]3c3ccc(Cl)cc3)cc12 [compound 265]
